Measured values from patent US12269805B2, “Inhibitors of platelet function and methods for use of the same” (THE REGENTS OF THE UNIVERSITY OF MICHIGAN, priority 2018, dated 2025).
Read-outs that look alike come from different tables or passages of the source.

Tests used:
thrombus formation = details: cited from earlier work
[1] = Pharmacokinetic study: compound concentration in mouse blood plasma after PO and IV administration; format: in vivo, mice; details: for Concentration in Plasma, Mouse 2: value marked as outlier; for concentration at 2 h / concentration at 4 h / concentration at 7 h: mouse, plasma, 30 mg/kg
Procedure: The blood plasma concentration of compound A3 in mice was determined following per os, oral compound administration (“PO”) and intravenous (“IV”) administration
Calibration curve. The concentration range was evaluated from 1-5000 ng/ml for compound A3. The curve was built with linear regression with weighing (1/X2). The linear regression analysis was performed by plotting the peak area ratio (y) against the concentration (x) in ng/mL.
Instrument Conditions. The LC-MS and mass spectrometry conditions for the compounds tested are shown below.
Results. The individual and average compound A3 concentration-time data for IV and PO dosed groups are listed in Table 1, and graphically presented in FIG. 1.

[2] = tested on: phospho-VASP (serine 157) in washed human platelets; assay: Vasodilator-stimulated phosphoprotein phosphorylation in human platelets (Western blot); format: cell-based; details: washed human platelets treated for one minute; 5 nm to 20 μM tested
Procedure: Citrated whole blood was centrifuged (200 g for 10 min) to isolate platelet-rich plasma. Platelet-rich plasma was treated with acid citrate dextrose (2.5% sodium citrate, 1.5% citric acid, 2.0% D-glucose) and apyrase (0.02 U/mL), and then centrifuged (2000 g for 10 mins) to pellet the platelets. Platelets were resuspended at 3.0×10^8 platelets/mL in Tyrode's buffer (10 mM HEPES, 12 mM NaHCO3, 127 mM NaCl, 5 mM KCl, 0.5 mM NaH2PO4, 1 mM MgCl2, and 5 mM glucose) unless otherwise stated.
Washed platelets were treated with forskolin (0.5 μM), 12-HETre (20 μM), or compound A3 (5 nm, 10 nm, 25 nm, 50 nm, 100 n, 250 nm, 1 μM, 5 μM, 10 μM, and 20 μM) for one minute, then directly lysed in 5× Laemmli sample buffer (1.5 M Tris-HCl, pH 6.8, glycerol, 5% β-mercaptoethanol, 10% sodium dodecyl sulfate (SDS), and 1% bromophenol blue). The samples were boiled for five minutes and then run on a 10% SDS-PAGE gel. The levels of total and phospho-VASP (serine 157) were quantified by Western Blot using an Odyssey imaging system (LI-CoR). […] Compound A3 induced VASP phosphorylation at a concentration as low as 10 nm.

platelets = details: cited from earlier work

CCCCC/C=C\C[C@H](O)/C=C/C=C\CCCCCCC(=O)O [Compound 12-HETrE, 12(S)-hydroxyeicosatetrienoic acid]
Thrombus formation following vessel injury (thrombus formation; irrespective of 12-LOX expression): potently impaired thrombus formation

CC(C)N(CCCCSc1n[nH]c(=O)[nH]1)c1cnc(-c2ccccc2)c(-c2ccccc2)n1 [Compound A3, 5-((4-((5,6-diphenylpyrazin-2-yl)(isopropyl)amino)butyl)thio)-2,4-dihydro-3H-1,2,4-triazol-3-one]
Concentration in Plasma, Mouse 2 ([1]; PO 30 mg/kg, 2 h): *809.0 ng/ml
Concentration in Plasma, Mouse 2 ([1]; PO 30 mg/kg, 4 h): *812.7 ng/ml
concentration at 2 h ([1]; iv, IV 30 mg/kg, 2 h, n=3, read-out: Concentration in Plasma, Mean): 164 ng/mL
concentration at 2 h ([1]; iv, IV 30 mg/kg, 2 h, read-out: Concentration in Plasma, Mouse 1): 203 ng/mL
concentration at 2 h ([1]; iv, IV 30 mg/kg, 2 h, read-out: Concentration in Plasma, Mouse 2): 158 ng/mL
concentration at 2 h ([1]; iv, IV 30 mg/kg, 2 h, read-out: Concentration in Plasma, Mouse 3): 131 ng/mL
concentration at 4 h ([1]; iv, IV 30 mg/kg, 4 h, n=3, read-out: Concentration in Plasma, Mean): 106 ng/mL
concentration at 4 h ([1]; iv, IV 30 mg/kg, 4 h, read-out: Concentration in Plasma, Mouse 1): 135 ng/mL
concentration at 4 h ([1]; iv, IV 30 mg/kg, 4 h, read-out: Concentration in Plasma, Mouse 2): 80.3 ng/mL
concentration at 4 h ([1]; iv, IV 30 mg/kg, 4 h, read-out: Concentration in Plasma, Mouse 3): 102 ng/mL
concentration at 7 h ([1]; iv, IV 30 mg/kg, n=3, read-out: Concentration in Plasma, Mean): 97.6 ng/mL
concentration at 7 h ([1]; iv, IV 30 mg/kg, read-out: Concentration in Plasma, Mouse 1): 123 ng/mL
concentration at 7 h ([1]; iv, IV 30 mg/kg, read-out: Concentration in Plasma, Mouse 2): 76.9 ng/mL
concentration at 7 h ([1]; iv, IV 30 mg/kg, read-out: Concentration in Plasma, Mouse 3): 92.7 ng/mL
concentration at 2 h ([1]; po, PO 30 mg/kg, 2 h, outlier left out, read-out: Concentration in Plasma, Mean): 119 ng/mL
concentration at 2 h ([1]; po, PO 30 mg/kg, 2 h, read-out: Concentration in Plasma, Mouse 1): 186 ng/mL
concentration at 2 h ([1]; po, PO 30 mg/kg, 2 h, read-out: Concentration in Plasma, Mouse 3): 52.5 ng/mL
concentration at 4 h ([1]; po, PO 30 mg/kg, 4 h, outlier left out, read-out: Concentration in Plasma, Mean): 34.5 ng/mL
concentration at 4 h ([1]; po, PO 30 mg/kg, 4 h, read-out: Concentration in Plasma, Mouse 1): 46.5 ng/mL
concentration at 4 h ([1]; po, PO 30 mg/kg, 4 h, read-out: Concentration in Plasma, Mouse 3): 22.5 ng/mL
concentration at 7 h ([1]; po, PO 30 mg/kg, n=3, read-out: Concentration in Plasma, Mean): 28.3 ng/mL
concentration at 7 h ([1]; po, PO 30 mg/kg, read-out: Concentration in Plasma, Mouse 1): 46.3 ng/mL
concentration at 7 h ([1]; po, PO 30 mg/kg, read-out: Concentration in Plasma, Mouse 2): 19.1 ng/mL
concentration at 7 h ([1]; po, PO 30 mg/kg, read-out: Concentration in Plasma, Mouse 3): 19.3 ng/mL
Lowest concentration that induced VASP phosphorylation [2]: 10 nm

CCCCC/C=C\C/C=C\C/C=C\CCCCCCC(=O)O [DGLA, Dihomo-γ-linolenic acid]
Platelet aggregation ex vivo (platelets): inhibit platelet aggregation ex vivo
Thrombus formation (thrombus formation; 12-LOX−/− mice): unable to inhibit thrombus formation
Platelet thrombus formation in vivo (thrombus formation; following an insult to the vessel wall): inhibited platelet thrombus formation in vivo
